The test system of the series is CHO cells expressing the hERG ion channel. Briefly: Thallium influx assay of cells expressing the hERG potassium ion channel, loaded with thallium ion indicator. The class given is cell-based. Conditions: for Fold Increase Over Baseline (fluorogenic response): loaded 60 minutes, potassium 10 mM; for Fold Increase Over Baseline (fluorogenic response) / detection of thallium ions (fluorescence dF/F over time): final thallium 2 mM; for change of fold increase (fluorogenic response) with dye loading concentration: dye concentration increased from 1 μM to 2 μM; for detection of thallium ions (fluorescence dF/F over time) / response (signal amplitude) post stimulus, Compound 8 relative to Compound 9: FIG. 10, average of 5-10 wells; for response (signal amplitude) post stimulus, Compound 8 relative to Compound 9: fold increase in signal post stimulus over baseline. The protocol:
Component A: Thallium ion indicator dye in amount that will prepare 1-10 uM solution in normal Chloride Assay Buffer. Component B: Physiological (normal) Chloride Assay Buffer: NaCl 145 mM; KCl 2.5 mM; CaCl2 1.8 mM; MgCl2 1.0 mM; HEPES 20 mM; pH set to 7.4 with NaOH. Component C: Chloride Free Stimulus Buffer: 140 mM Na Gluconate; 2.5 mM K Gluconate; 1.8 […] Ca Gluconate; 1.0 mM Mg Gluconate; 10 mM HEPES; 25 mM K2SO4; 5.0 mM Tl2SO4.
Cells including an ion channel are cultured to about 75% confluence and in log-phase growth. The cells are then harvested using well-known cell culture techniques and buffers and replated into a 96 well plate at a density of, for example, 5,000-40,000 cells per well (e.g., 20,000 cells per well). The cells comprise the ion channel endogenously, or the cells can be engineered to comprise ion channels of a particular type. Methods of transfecting and/or transforming cells to express a particular type of protein are well known in the art and need not be repeated herein.
To prepare the dye loading buffer, Component A is prepared in assay buffer (Component B) at concentrations from 1-20 micromolar. Optional addition of 1-100 μg/mL Pluronic surfactant can aid-in dispersion and loading of dye and/or 1-10 mM probenecid to aid in retention of the dye. Next the cell culture media is aspirated from the cells in the 96 well plate and replaced with dye loading buffer and incubated at room temperature for 60-120 minutes. While the cells are incubating in loading buffer, stimulus buffer (Component C) is prepared for addition to the microplate. The loading buffer then is removed from the cells, and replaced with […] that contains no dye, to reduce background fluorescence from unincorporated dye in the solution. Next, the fluorescence from the cells is read on a spectrophotometer. For samples implementing a thallium indicator that emits in the green spectral region, the sample is excited with light in the range of 470-500 nm, and emission is read at 520 to 540 nm, with a filter cutoff of 515 nm. For samples implementing a thallium indicator that emits in the red spectral region, the sample is excited with light in the range of 545-565 nm and read at 580-600 nm, with a filter cutoff of 570 nm. A pre-stimulus “baseline” signal is measured at regular intervals for 10-30 seconds in advance of adding Stimulus Buffer (Component C). Component C is added to the cells in a 1:5 dilution at the indicated time, and the increase in fluorescence from the cells is measured over time.
Cells expressing the hERG potassium ion channel were assayed using the method described in Example 10 to compare the efficacy of two different isomeric thallium ion indicators. CHO cells expressing the hERG ion channel were assayed using methods described herein. Cells were loaded in assay buffer containing the indicated concentration of dye in Table 1 (i.e., 1 or 10 μM) washed with dye-free assay buffer (Component B) and the stimulus buffer (Component C) was delivered to the cells in a volume of 25 μL, added to 100 μL for a 5× dilution (Component C, containing 25 mM T K2SO4 and […]). In this particular example, the final concentration of potassium on the cells was 10 mM and the final concentration of thallium on the cells was 2 mM. […] Fluorescence data from the samples was plotted over time as fold increase in signal (post stimulus) over baseline (pre stimulus). Signal amplitude was compared from an average of 5-10 individual wells loaded with the dye indicated.
Cells expressing the hERG potassium ion channel were assayed using the thallium influx method described in Example 11 to compare the efficacy of various thallium ion indicators disclosed herein. Thallium indicators were prepared in loading buffer at the concentrations listed in Table 1 and loaded into cells for 60 minutes. […]

[1] abbreviates: dye loading concentration 1 μM, excitation 470-500 nm, emission 520-540 nm.
The mark [2] stands for this setting: dye loading concentration 2 μM, excitation 470-500 nm, emission 520-540 nm.

On to `COc1cc(-c2c3ccc(=[N+](C)C)cc-3oc3cc(N(C)C)ccc23)ccc1N(CC(=O)OCOC(C)=O)CC(=O)OCOC(C)=O.[Br-]` [Compound 1, N-(9-(4-(bis(2-(acetoxymethoxy)-2-oxoethyl)amino)-3-methoxyphenyl)-6-(dimethylamino)-3H-xanthen-3-ylidene)-N-methylmethanaminium bromide], for which, for the setting “dye loading concentration 10 μM, excitation 545-565 nm, emission 580-600 nm”, the “Fold Increase Over Baseline (fluorogenic response)” value (“Fold Increase Over Baseline” below) is reported as 2.7 fold.
For `COc1ccc(NC(=O)c2ccc3c(c2)C(=O)OC32c3ccc(OC(C)=O)cc3Oc3cc(OC(C)=O)ccc32)cc1N(CC(=O)OCOC(C)=O)CC(=O)OCOC(C)=O` [Compound 2, bis(acetoxymethyl) 2,2′-((5-(3′,6′-diacetoxy-3-oxo-3H-spiro[isobenzofuran-1,9′-xanthene]-5-carboxamido)-2-methoxyphenyl)azanediyl)diacetate], the “change of fold increase (fluorogenic response) with dye loading concentration” value (“change of fold increase” for short) is listed as “little to no change”. Further, the “Fold Increase Over Baseline” value under setting [1] stood at 1.2 fold. Besides, the “Fold Increase Over Baseline” value under setting [2] amounted to 1.3 fold.
With `COc1ccc(NC(=O)c2ccc3c(c2)C2(OC3=O)c3ccc(OC(C)=O)cc3Oc3cc(OC(C)=O)ccc32)cc1N(CC(=O)OCOC(C)=O)CC(=O)OCOC(C)=O` [Compound 3, bis(acetoxymethyl) 2,2′-((5-(3′,6′-diacetoxy-3-oxo-3H-spiro[isobenzofuran-1,9′-xanthene]-6-carboxamido)-2-methoxyphenyl)azanediyl)diacetate], the “Fold Increase Over Baseline” value runs as follows: under setting [1], 1.1 fold; under setting [2], 0.8 fold.
For `COc1ccc(NC(=O)c2ccc3c(c2)C2(OC3=O)c3cc(F)c(OC(C)=O)cc3Oc3cc(OC(C)=O)c(F)cc32)cc1N(CC(=O)OCOC(C)=O)CC(=O)OCOC(C)=O` [Compound 4, bis(acetoxymethyl) 2,2′-((5-(3′,6′-diacetoxy-2′,7′-difluoro-3-oxo-3H-spiro[isobenzofuran-1,9′-xanthene]-6-carboxamido)-2-methoxyphenyl)azanediyl)diacetate] the same measures were 1.5 fold and 1.4 fold.
Regarding `COc1cc(NC(=O)c2ccc3c(c2)C(=O)OC32c3ccc(OC(C)=O)cc3Oc3cc(OC(C)=O)ccc32)ccc1N(CC(=O)OCOC(C)=O)CC(=O)OCOC(C)=O` [Compound 5, bis(acetoxymethyl) 2,2′-((4-(3′,6′-diacetoxy-3-oxo-3H-spiro[isobenzafuran-1,9′-xanthene]-5-carboxamido)-2-methoxyphenyl)azanediyl)diacetate], the “change of fold increase” value is on record as “decreased significantly”. Further, the “Fold Increase Over Baseline” value under setting [1] is given as 3.7 fold. Also, the “Fold Increase Over Baseline” value under setting [2] came out at 3.1 fold.
For the compound `COc1cc(NC(=O)c2ccc3c(c2)C2(OC3=O)c3ccc(OC(C)=O)cc3Oc3cc(OC(C)=O)ccc32)ccc1N(CC(=O)OCOC(C)=O)CC(=O)OCOC(C)=O` [Compound 6, bis(acetoxymethyl) 2,2′-((4-(3′,6′-diacetoxy-3-oxo-3H-spiro[isobenzofuran-1,9′-xathene]-6-carboxamido)-2-methoxyphenyl)azanediyl)diacetate], the “Fold Increase Over Baseline” value is given as 3.7 fold under setting [1] and 2.8 fold under setting [2].
In the same order, the values of `COc1cc(NC(=O)c2ccc3c(c2)C2(OC3=O)c3cc(F)c(OC(C)=O)cc3Oc3cc(OC(C)=O)c(F)cc32)ccc1N(CC(=O)OCOC(C)=O)CC(=O)OCOC(C)=O` [Compound 7, bis(acetoxymethyl) 2,2′-((4-(3′,6′-diacetoxy-2′,7′-difluroro-3-oxo-3H-spiro[isobenzofuran-1,9′-xanthene]-6-carboxamido)-2-methoxyphenyl)azanediyl)diacetate] are 2.3 fold and 1.5 fold.
Turning to `COc1cc(NC(=O)c2ccc3c(c2)C(=O)OC32c3cc(F)c(OC(C)=O)cc3Oc3cc(OC(C)=O)c(F)cc32)ccc1N(CC(=O)OCOC(C)=O)CC(=O)OCOC(C)=O` [Compound 8, bis(acetoxymethyl) 2,2′-((4-(3′,6′-diacetoxy-2′,7′-difluoro-3-oxo-3H-spiro[isobenzofuran-1,9′-xanthene]-5-carboxamido)-2-methoxyphenyl)azanediyl)diacetate], the “detection of thallium ions (fluorescence dF/F over time)” value is reported as “detected the presence of thallium ions”; the “response (signal amplitude) post stimulus, Compound 8 relative to Compound 9” value is “far more sensitive to thallium ions than Compound 9”; the “change of fold increase” value is reported as “not affected”. For the same compound, where the note is “listed as compound 8”, the “response (signal amplitude) post stimulus, Compound 8 relative to Compound 9” value is on record as “larger response (signal amplitude)”. Besides, the “Fold Increase Over Baseline” value under setting [1] was determined as 3.4 fold. For the same compound, the “Fold Increase Over Baseline” value under setting [2] is 3.4 fold.
On to `COc1ccc(NC(=O)c2ccc3c(c2)C(=O)OC32c3cc(F)c(OC(C)=O)cc3Oc3cc(OC(C)=O)c(F)cc32)cc1N(CC(=O)OCOC(C)=O)CC(=O)OCOC(C)=O` [Compound 9, bis(acetoxymethyl) 2,2′-((5-(3′,6′-diacetoxy-2′,7′-difluoro-3-oxo-3H-spiro[isobenzofuran-1,9′-xanthene]-5-carboxamido)-2-methoxyphenyl)azanediyl)diacetate], for which the “detection of thallium ions (fluorescence dF/F over time)” value was “detected the presence of thallium ions” and the “change of fold increase” value is given as “not affected”. Under setting [1], the “Fold Increase Over Baseline” value came to 2.0 fold. Also, the “Fold Increase Over Baseline” value under setting [2] came to 2.0 fold.

(Values after patent US20190187155A1, “COMPOSITION AND METHODS FOR MEASURING ION CHANNEL ACTIVITY IN A CELL” (LIFE TECHNOLOGIES CORPORATION, priority 2016, published 2019).)
